The subject of series [1] is in vitro model of the BBB (co-culture of bovine brain capillary endothelial cells and rat glial cells). Put plainly: First level screening: peptide passage in the in vitro BBB model, Coomassie blue detection. The conditions noted are these: 90 minutes at 37° C.
From the text: An in vitro model was used for screening assay and for mechanistic studies of drug transport to the brain. […] The model consists of a co-culture of bovine brain capillary endothelial cells and rat glial cells. It presents ultrastructural features characteristic of brain endothelium including tight junctions, lack of fenestration, lack of transendothelial channels, low permeability for hydrophilic molecules and a high electrical resistance.
The in vitro model of BBB was established by using a co-culture of BBCECs and astrocytes. Prior to cell culture, plate inserts (Millicell-PC 3.0 μM; 30-mm diameter) were coated on the upper side with rat tail collagen. They were then set in six-well microplates containing the astrocytes and BBCECs were plated on the upper side of the filters in 2 mL of co-culture medium. This BBCEC medium was changed three times a week. Under these conditions, differentiated BBCECs formed a confluent monolayer 7 days later. Experiments were performed between 5 and 7 days after confluence was reached. The permeability coefficient for sucrose was measured to verify the endothelial permeability.
Briefly, after removing the meninges, the brain tissue was forced gently through an 82 μm nylon sieve. Astrocytes were plated on six-well microplates at a concentration of 1.2×10^5 cells/mL in 2 mL of optimal culture medium (DMEM) supplemented with 10% heat inactivated fetal bovine serum. The medium was changed twice a week.
Bovine brain capillary endothelial cells (BBCECs) were obtained from Cellial Technologies. The cells were cultured in the presence of DMEM medium supplemented with 10% (v/v) horse serum and 10% heat-inactivated calf serum, 2 mM of glutamine, 50 μg/mL of gentamycin, and 1 ng/mL of basic fibroblast growth factor, added every other day.
Each peptide was added to the upper side of the inserts covered or non-covered with endothelial cells for 90 minutes at 37° C. […] After 90 minutes of transcytosis, a volume of 50 μl from the basolateral side of the filters covered with endothelial cells (+) or non-covered (−) was also loaded on Tricine gels. To visualize the peptides gels were stained with Coomassie blue.
The test system of series [2] is in vitro model of the BBB (bovine brain capillary endothelial cells). The series can be described thus: Second level screening: [125I]-peptide passage in the in vitro BBB model (cpm ratios). The protocol: This BBCEC medium was changed three times a week.
The medium was changed twice a week.
Briefly, the selected peptides were iodinated with standard procedures using iodo-beads from Sigma. Two iodo-beads were used for each protein. […] The iodination for each peptide was initiated by adding 100 μg (80-100 μl) of the bead suspension. […] Fractions of 0.5 ml were collected and the radioactivity in 5 μl of each fraction was measured.
The iodinated peptides were also investigated with the in vitro model of the BBB. […] Results were expressed as cpm ratios.

For series [3], the system named is in vitro BBB model (BBCEC monolayers grown on filters in the presence of astrocytes). Put plainly: Permeability coefficient (Pe) / transcytosis capacity in the in vitro BBB model. Format: in vitro ADME, bovine. The conditions noted are these: third level of selection, peptide at 250 nM. The protocol: At different times, inserts were placed into another well.
Transcytosis capacity of Aprotinin-Paclitaxel conjugate was determined and is reported below in Table 5.

A further series relates to mouse brain. Put plainly: In situ cerebral perfusion with post-perfusion capillary depletion. The conditions noted are these: perfusion 5 min; for Volume of distribution, Capillaries % / Volume of distribution, Parenchyma %: share of homogenate; for Volume of distribution, Homogenate: total brain. Format: in vivo, mice. From the text:
The in situ cerebral perfusion (in mice) was used as the fourth level of selection to select the best peptides. This procedure also distinguishes between compounds remaining in the brain vascular compartment from those having crossed the abluminal endothelial membrane to enter the brain parenchyma. Indeed, the technique of post-perfusion capillary depletion allows to measure whether the molecule really crosses the endothelium to enter the brain parenchyma.

The mark [4] stands for this setting: [125I]-peptide, cpm in bottom chamber / total cpm added, filter covered with endothelial cells, 90 minutes at 37° C.

Like-named read-outs stand apart in the source and are kept apart here. Residues, ends and D or L forms follow the SMILES beside them. No end group written: not given here.

Turning to “TFFYGGCRAKRNNFKRAKY-NH2 [Peptide 5, T F F Y G G C R A K R N N F K R A K Y]”, the “Peptide detected in the lower side of the chambers by Coomassie blue staining” value (“Peptide detected in the lower side” below) in series [1] is “detected in the lower side of the chambers”. Also, the “Ratio +cells/initial” value in series [2] (setting [4]) is listed as 0.051. Further, the “Permeability coefficient (Pe)” value in series [3] was “highest Pe”. For the same compound, in the series on mouse brain, the “Volume of distribution, Capillaries” value was determined as 217 ml/100 g; the “Volume of distribution, Capillaries %” value was 73%; the “Volume of distribution, Homogenate” value is reported as 312 ml/100 g.
Regarding “TFFYGGCRGKRNNFKTKRY [Peptide 78, T F F Y G G C R G K R N N F K T K R Y]”, the “Peptide detected in the lower side” value in series [1] was “detected in the lower side of the chambers”. Further, the “Permeability coefficient (Pe)” value in series [3] was “highest Pe”. Further, in the series on mouse brain, the “Volume of distribution, Capillaries” value is 181 ml/100 g; the “Volume of distribution, Parenchyma” value is reported as 16 ml/100 g; the “Volume of distribution, Capillaries %” value is 90%; the “Volume of distribution, Parenchyma %” value came out at 10%. The “Volume of distribution, Homogenate” value in the series on mouse brain turned out to be 198 ml/100 g.
In the case of “TFFYGGCRGNRNNFLTAEY [Peptide 45, T F F Y G G C R G N R N N F L T A E Y]”, the “Peptide detected in the lower side” value in series [1] is recorded as “detected in the lower side of the chambers”.
As to `C[C@@H](O)[C@H](NC(=O)[C@H](CCCCN)NC(=O)[C@H](Cc1ccccc1)NC(=O)[C@H](CC(N)=O)NC(=O)[C@H](CC(N)=O)NC(=O)[C@H](CCCNC(=N)N)NC(=O)[C@H](CCCCN)NC(=O)CNC(=O)[C@H](CCCNC(=N)N)NC(=O)[C@H](CS)NC(=O)[C@H](CO)NC(=O)CNC(=O)[C@H](Cc1ccc(O)cc1)NC(=O)[C@H](Cc1ccccc1)NC(=O)[C@H](Cc1ccccc1)NC(=O)[C@@H](NC(=O)[C@@H](N)CS)[C@@H](C)O)C(=O)N[C@@H](CCC(=O)O)C(=O)N[C@@H](CCC(=O)O)C(=O)N[C@@H](Cc1ccc(O)cc1)C(=O)O` [Peptide 73, CTFFYGSCRGKRNNFKTEEY] (H-CTFFYGSCRGKRNNFKTEEY-OH; N-terminus and C-terminus assumed), the “Peptide detected in the lower side” value in series [1] is recorded as “detected in the lower side of the chambers”.
As for `C[C@@H](O)[C@H](N)C(=O)N[C@@H](Cc1ccccc1)C(=O)N[C@@H](Cc1ccccc1)C(=O)N[C@@H](Cc1ccc(O)cc1)C(=O)NCC(=O)NCC(=O)N[C@@H](CO)C(=O)N[C@@H](CCCNC(=N)N)C(=O)NCC(=O)N[C@@H](CCCCN)C(=O)N[C@@H](CCCNC(=N)N)C(=O)N[C@@H](CC(N)=O)C(=O)N[C@@H](CC(N)=O)C(=O)N[C@@H](Cc1ccccc1)C(=O)N[C@@H](CCCCN)C(=O)N[C@H](C(=O)N[C@@H](CCC(=O)O)C(=O)N[C@@H](CCC(=O)O)C(=O)N[C@@H](Cc1ccc(O)cc1)C(=O)O)[C@@H](C)O` [Peptide 70, T F F Y G G S R G K R N N F K T E E Y], the “Peptide detected in the lower side” value in series [1] is reported as “detected in the lower side of the chambers”.
The same measure, in the same setting: under “PFFYGGCRGKRNNFKTEEY [Peptide 75, P F F Y G G C R G K R N N F K T E E Y]” stands “detected in the lower side of the chambers”.
With “TFFYGGKRGKRNNFKTEEY [Peptide 77, T F F Y G G K R G K R N N F K T E E Y]”, the “Peptide detected in the lower side” value in series [1] is given as “detected in the lower side of the chambers”.
For “TFFYGGKRGKRNNFKRAKY [Peptide 82, T F F Y G G K R G K R N N F K R A K Y]”, the “Peptide detected in the lower side” value in series [1] is given as “detected in the lower side of the chambers”.
With “TFFYGGSRGNRNNFKTAKY [Peptide 25, T F F Y G G S R G N R N N F K T A K Y]”, in the series on mouse brain, the “Volume of distribution, Capillaries” value was 1082 ml/100 g; the “Volume of distribution, Parenchyma” value was 60 ml/100 g; the “Volume of distribution, Capillaries %” value worked out at 95%; the “Volume of distribution, Parenchyma %” value came to 5%. In addition, the “Volume of distribution, Homogenate” value in the series on mouse brain is reported as 1141 ml/100 g.
For “TFFYGGCRGKRNNFKTEEY-NH2 [Peptide 67, T F F Y G G C R G K R N N F K T E E Y]”, in series [1], the “Peptide detected in the lower side” value is “detected in the lower side of the chambers”. Further, the “Permeability coefficient (Pe)” value in series [3] was “highest Pe”. Also, in the series with mouse brain, the “Volume of distribution, Capillaries” value amounted to 13 ml/100 g; the “Volume of distribution, Capillaries %” value worked out at 34%; the “Volume of distribution, Homogenate” value is 38 ml/100 g.
“TFFYGGKRGKRNNFKTAEY [Peptide 79, T F F Y G G K R G K R N N F K T A E Y]”: in series [1], the “Peptide detected in the lower side” value was “detected in the lower side of the chambers”. For the same compound, the “Permeability coefficient (Pe)” value in series [3] was “highest Pe”. Moreover, in the series on mouse brain, the “Volume of distribution, Capillaries” value was 52 ml/100 g; the “Volume of distribution, Parenchyma” value is recorded as 18 ml/100 g; the “Volume of distribution, Capillaries %” value is 74%; the “Volume of distribution, Parenchyma %” value amounted to 26%. The “Volume of distribution, Homogenate” value in the series with mouse brain came to 70 ml/100 g.
Take `C[C@@H](O)[C@H](NC(=O)[C@H](CCCCN)NC(=O)[C@H](Cc1ccccc1)NC(=O)[C@H](CC(N)=O)NC(=O)[C@H](CC(N)=O)NC(=O)[C@H](CCCNC(=N)N)NC(=O)[C@H](CCCCN)NC(=O)CNC(=O)[C@H](CCCNC(=N)N)NC(=O)[C@H](CS)NC(=O)[C@H](CS)NC(=O)CNC(=O)[C@H](Cc1ccc(O)cc1)NC(=O)[C@H](Cc1ccccc1)NC(=O)[C@H](Cc1ccccc1)NC(=O)[C@@H](NC(=O)[C@@H](N)CS)[C@@H](C)O)C(=O)N[C@@H](CCC(=O)O)C(=O)N[C@@H](CCC(=O)O)C(=O)N[C@@H](Cc1ccc(O)cc1)C(=O)O` [Peptide 71, CTFFYGCCRGKRNNFKTEEY] (H-CTFFYGCCRGKRNNFKTEEY-OH; N-terminus and C-terminus assumed): the “Peptide detected in the lower side” value in series [1] is given as “detected in the lower side of the chambers”. Further, in series [2], the “Ratio −cells/initial” value turned out to be 0.072. In addition, the “Ratio +cells/−cells” value in series [2] ([125I]-peptide in bottom chamber of filters covered with vs without endothelial cells) was found to be 0.37. In addition, the “Ratio +cells/initial” value in series [2] (setting [4]) was 0.027.
As for `C[C@@H](O)[C@H](N)C(=O)N[C@@H](Cc1ccccc1)C(=O)N[C@@H](Cc1ccccc1)C(=O)N[C@@H](Cc1ccc(O)cc1)C(=O)NCC(=O)NCC(=O)N[C@@H](CS)C(=O)N[C@@H](CCCNC(=N)N)C(=O)NCC(=O)N[C@@H](CCCCN)C(=O)N[C@@H](CCCNC(=N)N)C(=O)N[C@@H](CC(N)=O)C(=O)N[C@@H](CC(N)=O)C(=O)N[C@@H](Cc1ccccc1)C(=O)N[C@@H](CCCCN)C(=O)N[C@H](C(=O)N[C@@H](CCC(=O)O)C(=O)N[C@@H](CCC(=O)O)C(=O)N[C@@H](Cc1ccc(O)cc1)C(=O)N[C@@H](CS)C(=O)O)[C@@H](C)O` [Peptide 72, TFFYGGCRGKRNNFKTEEYC] (H-TFFYGGCRGKRNNFKTEEYC-OH; N-terminus and C-terminus assumed), the “Peptide detected in the lower side” value in series [1] is recorded as “detected in the lower side of the chambers”.
With “R F K Y G G C L G N K N N Y L R L K Y (RFKYGGCLGNKNNYLRLKY-NH2) [Peptide 91]”, in series [1], the “Peptide detected in the lower side” value is reported as “detected in the lower side of the chambers”. In series [2], the “Ratio +cells/initial” value came out at 0.158 and the “Ratio −cells/initial” value is on record as 0.406. Besides, the “Permeability coefficient (Pe)” value in series [3] was “highest Pe”. Also, in the series on mouse brain, the “Volume of distribution, Capillaries” value was 24 ml/100 g; the “Volume of distribution, Capillaries %” value was found to be 59%; the “Volume of distribution, Homogenate” value is 47 ml/100 g.
With “TFFYGGCRGKKNNFKRAKY [Peptide 8, T F F Y G G C R G K K N N F K R A K Y]”, the “Peptide detected in the lower side” value in series [1] is given as “detected in the lower side of the chambers”. Further, the “Permeability coefficient (Pe)” value in series [3] was “highest Pe”. In addition, in the series with mouse brain, the “Volume of distribution, Capillaries” value was found to be 204 ml/100 g; the “Volume of distribution, Parenchyma” value is on record as 46 ml/100 g; the “Volume of distribution, Capillaries %” value amounted to 82%; the “Volume of distribution, Parenchyma %” value worked out at 18%. In the series on mouse brain, the “Volume of distribution, Homogenate” value worked out at 250 ml/100 g.
For “TFFYGGKRGKRNNFKREKY [Peptide 81, T F F Y G G K R G K R N N F K R E K Y]”, the “Peptide detected in the lower side” value in series [1] was “detected in the lower side of the chambers”.
With “RFKYGGCLGNKNNFLRLKY [Peptide 90, R F K Y G G C L G N K N N F L R L K Y]”, the “Peptide detected in the lower side” value in series [1] was “detected in the lower side of the chambers”. Further, the “Permeability coefficient (Pe)” value in series [3] is “highest Pe”. In the series on mouse brain, the “Volume of distribution, Capillaries” value came out at 76 ml/100 g; the “Volume of distribution, Parenchyma” value amounted to 11 ml/100 g; the “Volume of distribution, Capillaries %” value worked out at 88%; the “Volume of distribution, Parenchyma %” value stood at 12%. Besides, in the series with mouse brain, the “Volume of distribution, Homogenate” value turned out to be 87 ml/100 g.

Source of the values: US7902156B2 (Angiochem Inc., priority 2005, dated 2011).
